This test concerns OVCAR8 cells and OVCAR8-ADR cells. Description: Docetaxel dose-response (MTT), resistant versus parental line. Type of test: cell-based, human. The conditions noted are these: docetaxel three days, FIG. 13. The method, then: OVCAR8 cells (triangles) and OVCAR8-ADR (squares) cells (docetaxel-resistant derivative of OVCAR8) cells were treated with docetaxel at indicated doses for three days and subjected to the MTT assay. Cell viabilities were compared to the respective no drug controls. The OVCAR8-ADR cell line has a ˜3-fold higher IC50 than the parental OVCAR8 cell line. Data represent the mean±SD (n=3).
For the MTT assay, 100 μl of MTT (3-(4,5-dimethylthiazol-2-yl)-2,5-diphenyltetrazolium bromide) solution (Sigma) was added to the cell cultures in 96-well plates and incubated at 37° C. with 5% CO2 for 2 hours. Viable cells convert the soluble MTT salt to insoluble blue formazan crystals. Formazan crystals formed were dissolved with 100 μl of solubilization buffer at 37° C. The absorbance of the solubilized formazan was measured at an optical density (OD) of 570 nm (along with the reference OD at 650 nm) using a Synergy H1 Microplate Reader (BioTek). For the trypan blue exclusion assay, cells were trypsinized and stained with 0.4% trypan blue dye solution (Sigma). Viable cells were counted in four different fields of a hemacytometer under microscopy.

From patent publication US20170369878A1, “MICRORNA COMBINATIONS FOR ANTI-CANCER THERAPEUTICS” (Massachusetts Institute of Technology, priority 2015, published 2017) come the findings set out here.

Each structure is given as a SMILES string.

Take `CC(=O)O[C@@]12CO[C@@H]1C[C@H](O)[C@@]1(C)C(=O)[C@H](O)C3=C(C)[C@@H](OC(=O)[C@H](O)[C@@H](NC(=O)OC(C)(C)C)c4ccccc4)C[C@@](O)([C@@H](OC(=O)c4ccccc4)[C@H]21)C3(C)C` [docetaxel]: the “IC50 of OVCAR8-ADR relative to parental OVCAR8” value is roughly 3 fold.
